According to patent US6958141B2, “Rhenium and technetium complexes containing a hypoxia-localizing moiety” (Bracco International B.V., priority 1991, dated 2005):

Tests used:
[1] = Determination of reduction potential by cyclic voltammetry; assay type: physicochemical; conditions: for Epc(V): cyclic voltammetry in dimethylformamide at Hg, vs. Ag/AgNO3; for Reduction process: cyclic voltammetry in dimethylformamide
Method: The reduction potentials of misonidazole, ^99TcO(PnAO), and ^99Tc-hypoxia-localizing tracers were determined by cyclic voltammetry (C.V.) in dimethylformamide. […] The reference electrode was Ag/AgNO3 with an acetonitrile filling solution saturated with LiCl. The counter electrode was a platinum wire. Voltamograms at mercury were determined at scan rates of 50, 100, 200, and 500 mV/s.
The solutions used in C.V. studies contained test sample at a concentration of 0.2-0.7 mM and tetrabutylammonium tetrafluoroborate (Bu4NBF4) or tetrabutylammonium hexafluorophosphate (Bu4NPF6) supporting electrolyte at a concentration of 0.1M. The solution was deoxygenated by bubbling solvent-saturated nitrogen or argon through the solution for 15 minutes. Variations in the reference potential were accounted for by determining the C.V. of a Ru(acac)3 standard on a daily basis.

[2] = tested on: hypoxic ischemic border zone; assay: Rabbit focal myocardial ischemia model (LAD occlusion), double-label autoradiography; assay type: in vivo; conditions: permanent LAD coronary artery ligation, intravenous tracer, heart sections
Method: A model of focal myocardial ischemia in the rabbit was developed, using permanent ligation of the left anterior descending (LAD) coronary artery. The model consisted of two studies. In the first, relative regional myocardial blood flow (MBF) and relative regional myocardial rate of glucose metabolism (MMRgl) were determined by autoradiography using a double-label study with the flow tracer ^99mTcCl(CDO)3MeB (R. K. Narra et al., J. Nucl. Med., 1989; 30:1830-1837) and ^14C-deoxy-glucose for MMRgl (L. Sokoloff et al., J. Neurochem., 1977, 28, 897-916). ^14C-deoxyglucose and the ^99mTc-hypoxia-localizing tracer were administered to a second group of rabbits with LAD coronary artery occlusion.
After the surgical preparation and 20 minutes of LAD occlusion, ^14C-deoxyglucose (130-150 μCi) was injected as an intravenous bolus, and timed arterial blood samples were obtained. Twenty-five minutes later, ^99mTcCl(CDO)3MeB (10-12 mCi) was administered intravenously. Five minutes later, the rabbits were sacrificed by intravenous injection of Nembutal and potassium chloride. The heart was excised, frozen in liquid Freon-22, and 20 μm coronal sections obtained with a Microtome. Autoradiographs were obtained on all sections. For the first exposure (˜14 hours duration) of Kodak XAR film, extra heavy duty aluminum foil was interposed between the tissue and film to block completely the radiation emanating from ^14C to obtain the MBF information derived from ^99mTcCl(CDO)3MeB alone. After three days (to allow for decay of ^99mTc); a second autoradiograph was obtained without foil. The second exposure lasted 6-8 days, and,provided an image of the regional distribution of ^14C-deoxyglucose.
In a separate experiment using the rabbit LAD occlusion model and the double-label autoradiography procedures described above, the performance of the ^99mTc complex of the ligand described in Example 1 was compared to that of ^14C-misonidazole.

[3] = tested on: Calcium-tolerant ventricular myocytes; assay: Isolated cardiac myocyte studies, retention of radioactivity; assay type: cell-based, male Sprague Dawley rats; conditions: isolated myocytes; for Anoxia/normoxia ratio: % in Cell Pellet; for % in Cell Pellet, Anoxia / % in Cell Pellet, Normoxia: several Tc-99m complexes
Text: Calcium-tolerant ventricular myocytes were isolated from hearts of male Sprague Dawley rats (200 g) according to the procedure of Wittenberg and Robinson (B. A. Wittenberg and T. F. Robinson, Cell Tissue Res., 216: 231, 1981) with modifications described previously (W. Rumsey, C. Schlosser, E. M. Nuutinen, M. Robiolio and D. F. Wilson, J. Biol. Chem., 265 (26): 15392, 1990). Cells were used immediately following morphological analysis (using a hemocytometer) of viability and were maintained at 37° C. during the experiments. The number of quiescent, rod shaped cells ranged from 70-90% within a total population of 5-9×10^6 cells.
The isolated myocytes were maintained in either a normoxic, hypoxic or anoxic state. Hypoxia was induced by providing an atmosphere of argon atop of the cells and sealing the flask during the incubation period. Glucose oxidase plus catalase (5/5 mg) was added to argon treated cells to provide anoxia. Cells were suspended (6.5-7.5×10^4 cells/ml) in isolation media and aliquots were added to incubation vials maintained at 37° C.
After incubation with a test compound, myocytes were deproteinated with 1% ice-cold perchloric acid and centrifuged at 12,000 rpm for 30 sec. The supernatent was separated from the pellet and each counted using a LKB 1282 gamma counter. Alternatively, myocytes were separated from the suspending media by passing the cells through 99% dibutyl phthalate by centrifugation at 12,000 rpm for 30 sec. The three phases were separated and counted as described above. Results for the Tc-99m complex of the compound in Example 1 are given below:
Values represent means ±S.E.M. for the number of experiments noted in the parentheses. The values are the percent of total radioactivity represented by each case. PCA pellet=perchloric acid-precipitated pellet which represents the activity associated with proteins/membranes. Cell pellet=whole cells passed through a layer of dibutyl phthalate (oil).
Several Tc-99m complexes were examined in isolated myocytes using the protocol described above. The percentage of activity retained in the cell pellet was determined under anoxic and normoxic states.

Compound | Epc(V) ([1]; first or only reduction listed) | Reduction process ([1]; first or only reduction listed) | melting point | other results
CC(=NO)C(C)(C)NCCCNC(C)(C)C(Cn1cnc([N+](=O)[O-])c1)=NO [Example 2, 3,3,9,9-Tetramethyl-1-(4-nitro-1H-imidazo-1-yl)-4,8-diazaundecane-2,10-dione dioxime] | −1.81 V | reversible | – | –
^14C-misonidazole | – | – | – | regional myocardial distribution pattern (autoradiography) [2]: high uptake in the hypoxic border zone of the ischemic territory and low uptake in normoxic regions
CC1=[N+](O)[99Tc-]23(=[O])[N](CCC[N]2C1(C)C)C(C)(C)C(CCn1ccnc1[N+](=O)[O-])=[N+]3[O-] [Example 19, [^99Tc]Oxo[[4,4,10,10-tetramethyl-1-(2-nitro-1H-imidazo-1-yl)-5,9-diazadodecane-3,11-dione dioximato](3-)-N,N′,N″,N′″]technetium(V)] | −1.53 V | reversible | – | Epc(V) ([1]; second reduction listed): −2.07 V; Reduction process ([1]; second reduction listed): irreversible
CC(=NO)C(C)(C)NCC(O)CNC(C)(C)C(Cn1ccnc1[N+](=O)[O-])=NO (stereo not drawn) [Example 4, 6-Hydroxy-3,3,9,9-tetramethyl-1-(2-nitro-1H-imidazo-1-yl)-4,8-diazaundecane-2,10-dione dioxime] | −1.51 V | reversible | – | –
CC(=NO)C(C)(C)NCC(C)CNC(C)(C)C(C)=NO (stereo not drawn) [^99mTc Complex of 6-methyl-PnAO, ^99mTc-complexes of 6-methyl PnAO (3,3,6,9,9-pentamethyl-4,8-diazaundecane-2,10-dione dioxime), metal not drawn, reference compound] | – | – | – | regional myocardial distribution pattern (autoradiography) [2]: no differentiation of ischemic and non-ischemic regions; Anoxia/normoxia ratio [3]: 1.3; % in Cell Pellet, Anoxia [3]: 22.7 (n = 1) %; % in Cell Pellet, Normoxia [3]: 17.4 (n = 1) %
CC1=[N+](O)[99Tc-]23(=[O])[N](CCC[N]2C1(C)C)C(C)(C)C(Cn1cnc([N+](=O)[O-])c1)=[N+]3[O-] [Example 6a, [^99Tc]Oxo[[3,3,9,9-tetramethyl-1-(4-nitro-1H-imidazo-1-yl)-4,8-diazaundecane-2,10-dione dioximato]-(3-)-N,N′,N″,N′″]technetium(V)] | −1.81 V | reversible | – | Epc(V) ([1]; second reduction listed): −2.02 V; Reduction process ([1]; second reduction listed): irreversible
CC(=NO)C(C)(C)NCCCNC(C)(C)C(Cn1ccnc1[N+](=O)[O-])=NO [Example 1, 3,3,9,9-Tetramethyl-1-(2-nitro-1H-imidazo-1-yl)-4,8-diazaundecane-2,10-dione dioxime] | −1.52 V | reversible | – | –
CC(=NO)C(C)(C)NCC(O)CNC(C)(C)C(C)=NO (stereo not drawn) [^99mTc Complex of 6-hydroxy-PnAO, 6-hydroxy PnAO(6-hydroxy-3,3,9,9-tetramethyl-4,8-diazaundecane-2,10-dione dioxime), metal not drawn, reference compound] | – | – | – | Anoxia/normoxia ratio [3]: 1.3; % in Cell Pellet, Anoxia [3]: 9.2 (n = 1) %; % in Cell Pellet, Normoxia [3]: 7.1 (n = 1) %
CC(=NO)C(C)(C)NCCCNC(C)(C)C(CCn1ccnc1[N+](=O)[O-])=NO [Example 3, 4,4,10,10-Tetramethyl-1-(2-nitro-1H-imidazo-1-yl)-5,9-diazadodecane-3,11-dione dioxime] | −1.54 V | reversible | – | –
CC(=NO)C(C)(C)NCC(CNC(C)(C)C(C)=NO)NC(=O)Cn1ccnc1[N+](=O)[O-] (stereo not drawn) [Example 5, 3,3,9,9-Tetramethyl-6-((2-nitro-1H-imidazo-1-yl)acetamido)-4,8-diazaundecane-2,10-dione dioxime] | −1.52 V | reversible | – | –

Further lines, with some results ahead:

Epc(V) ([1]; first or only reduction listed) | Reduction process ([1]; first or only reduction listed) | melting point | Compound | other results
– | – | 140 to 141 °C | CC(=NO)C(C)(C)NCCCNC(C)(C)C(Cn1cc(C)nc1[N+](=O)[O-])=NO [Example 27, 3,3,9,9-Tetramethyl-1-(4-methyl-2-nitro-1H-imidazol-1-yl)-4,8-diazaundecane-2,10-dione dioxime] | –
– | – | 150 to 152 °C | CC(=NO)C(C)(C)NCCCNC(C)(C)C(Cn1c(C)cnc1[N+](=O)[O-])=NO [Example 28, 3,3,9,9-Tetramethyl-1-(5-methyl-2-nitro-1H-imidazol-1-yl)-4,8-diazaundecane-2,10-dione dioxime] | –
– | – | 185 to 187 °C | CC(=NO)C(C)(C)NCC(CNC(C)(C)C(C)=NO)CC(O)Cn1ccnc1[N+](=O)[O-] (stereo not drawn) [Example 26, 3,3,9,9-Tetramethyl-6-[2-hydroxy-3-(2-nitro-1H-imidazol-1-yl)propyl]-4,8-diazaundecane-2,10-dione dioxime] | –
−1.62 V | reversible | – | Cc1ncc([N+](=O)[O-])n1CCO [Metronidazole, reference compound] | –
– | – | 90 to 92 °C | CC(=NO)C(C)(C)NCC(F)(F)CNC(C)(C)C(CCn1ccnc1[N+](=O)[O-])=NO [Example 30, 6,6-Difluoro-3,3,9,9-tetramethyl-12-(2-nitro-1H-imidazol-1-yl)-4,8-diazadodecane-2,10-dione dioxime] | –
– | – | 62 to 64 °C | CC(=NO)C(C)(C)NCC(O)CNC(C)(C)C(CCn1ccnc1[N+](=O)[O-])=NO (stereo not drawn) [Example 32, 6-Hydroxy-3,3,9,9-tetramethyl-12-(2-nitro-1H-imidazol-1-yl)-4,8-diazadodecane-2,10-dione dioxime] | –
– | – | 122 to 123 °C | CCOCC(=NO)C(C)(C)NCCCNC(C)(C)C(Cn1ccnc1[N+](=O)[O-])=NO [Example 25, 11-Ethoxy-3,3,9,9-tetramethyl-1-(2-nitro-1H-imidazol-1-yl)-4,8-diazaundecane-2,10-dione dioxime] | –
– | – | 167 to 168 °C | CC(=NO)C(C)(C)NCC(C)CNC(C)(C)C(Cn1ccnc1[N+](=O)[O-])=NO (stereo not drawn) [Example 23, 3,3,6,9,9-Pentamethyl-1-(2-nitro-1H-imidazol-1-yl)-4,8-diazaundecane-2,10-dione dioxime] | –
– | – | 134 to 135 °C | CC(=NO)C(C)(C)NCCCNC(C)(C)C(COCC(O)Cn1ccnc1[N+](=O)[O-])=NO (stereo not drawn) [Example 31, 3,3,9,9-Tetramethyl-1-[2-hydroxy-3-(2-nitro-1H-imidazol-1-yl)propoxy]-4,8-diazaundecane-2,10-dione dioxime] | –
−1.49 V | reversible | – | COCC(O)Cn1ccnc1[N+](=O)[O-] (stereo not drawn) [Misonidazole, reference compound] | –
– | – | 137 to 139 °C | COC(=O)CCC(=NO)C(C)(C)NCCCNC(C)(C)C(Cn1ccnc1[N+](=O)[O-])=NO [Example 24, 12-Methoxycarbonyl-3,3,9,9-tetramethyl-1-(2-nitro-1H-imidazol-1-yl)-4,8-diazadodecane-2,10-dione dioxime] | –
